Measurements published in publication PMC4841536, “Characterization of the Anti-HCV Activities of the New Cyclophilin Inhibitor STG-175” (PLoS ONE, 2016).
Values joined by “and” are separate entries in the source; they are usually repeats but may differ in a detail not shown here. Identical values can stand only once. Like-named read-outs stand apart in the source and are kept apart here.

How the values were obtained:
[1] = system: wild-type Con1 GT1b replicon; experiment: Electroporated Con1 RNA replication in Huh7.5.1 cells (RT-qPCR), wild-type; assay type: cell-based; details: Hepatitis C virus
Text: (§1) The GT1b subgenomic firefly luciferase reporter replicon pFK-I389/NS3–3 was provided by R. Bartenschlager. The GT1B subgenomic NS3, NS5A and NS5B mutants were created via homologous recombination using the In-Fusion HD Cloning kit (Clontech) as we described previously. […] The in vitro transcription of wild-type and mutant Con1 RNA was accomplished using the T7 MEGAscript kit (Ambion) by following the manufacturer’s instructions. In vitro-transcribed RNAs were introduced into Huh7.5.1 cells by electroporation. Trypsinized cells were washed twice and resuspended in phosphate-buffered saline (PBS) (calcium-free and magnesium-free) at 1x 10^7 cells per ml. Ten micrograms of RNA for each mutant was mixed with 0.4 mL of cells in a 4-mm cuvette, and a Bio-Rad Gene Pulser system was used to deliver a single pulse at 0.27 kV, 100 ohms, and 960 μF. Cells were then plated in 12-well dishes. RNA transfection efficiency and HCV subgenomic replication were assessed by reverse transcription-quantitative PCR (RT-qPCR) and presented as genome equivalents (GE) per microgram of total RNA as described previously. We measured by RT-qPCR the replication of wild-type, STG-175-, NS5Ai-, NS3i- and NS5Bi-resistant mutants in the presence of increasing concentrations of SGT-175, daclatasvir, telaprevir, boceprevir and sofosbuvir over a period of 8 days.
(§2) Fig 3 Replicon clearance, replication rebound and resistance analyses. […] Then drugs were removed to allow viral replication rebound to occur. At each passage, samples of cells were collected, RNA extracted and analyzed by RT-PCR for HCV RNA levels. B. Emergence of resistance: Con1 replicon Huh-7 cells were passaged 22 times in the absence or presence of STG-175 or selected DAAs. At each passage, sample of cells were collected, RNA extracted and analyzed by RT-PCR for HCV RNA levels. C. […] Data are expressed as number of HCV RNA copies per cell. […] Data are expressed as mean of relative light units and calculated EC50s are presented. […] E. Degree of resistance of D320E and Y321N Con1 variants: Left panel. Wild-type (WT), D320E and D320/Y321N NS5A Con1 RNA were electroporated into Huh7.5.1 cells and replication monitored over 8 days by quantifying the levels of intracellular HCV RNA. Right panel. Same as just above except that increasing concentrations of STG-175 were added at the time of the electroporation. […] STG-175 is taken as the substance from the printed x-axis title 'STG-175 in Log nM'.
To determine whether the D320E and Y321N substitutions truly render HCV resistant to STG-175, they were introduced into wild-type Con1 replicon as we described previously. Introduction of the substitutions was verified by sequencing. In vitro-transcribed wild-type, D320E and D320E/Y321N HCV RNAs were then electroporated into Huh7.5.1 cells and viral replication assessed by RT-qPCR and presented as GE per microgram of total RNA as we described previously. […] We then analyzed the replication of wild-type, D320E and D320E/Y321N in the presence of increasing concentrations of SGT-175 over a period of 8 days.
Fig 5 Cross-resistance analyses.

[2] = system: D320E NS5A Con1 GT1b replicon; experiment: microbe, parasite or virus in culture; assay type: cell-based, hepatitis C virus; details: for EC50: Hepatitis C virus, GT1B
Text: as §1
(§3) D320E and D320E/Y321N NS5A substitutions were introduced into wild-type Con1 GT1 replicon as we described previously. Con1-NS5A-D320E, and Con1-NS5A-D320E/Y321N were generated using the following forward and reverse phosphorylated (p) primer sets, respectively: (p)[…] and (p)[…], and (p)[…] and (p)[…]. PCR products were circularized with Quick T4 DNA ligase (NEB) for 5 min and transformed into NEB 10-beta competent cells. The NS5A gene was sequenced to confirm the introduced substitutions.
as §2
(§4) To determine whether the D320E and Y321N substitutions truly render HCV resistant to STG-175, they were introduced into wild-type Con1 replicon as we described previously. Introduction of the substitutions was verified by sequencing.

[3] = system: D320E/Y321N NS5A Con1 GT1b replicon; experiment: microbe, parasite or virus in culture; assay type: cell-based, hepatitis C virus; details: for EC50: Hepatitis C virus, GT1B
Text: as §1, §3, §2, §4

[4] = system: HIV-1 (JR-CSF) in activated PBMCs; experiment: Mono-infection, HIV-1 capsid/p24 ELISA; assay type: cell-based; details: added together with virus, 12 days
Text: For mono-infections: a) human hepatoma Huh7.5.1 cells were infected with HCV (JFH-1) and viral replication was quantified by HCV core ELISA (Ortho HCV antigen ELISA kit; Ortho Clinical Diagnostics, Waco Chemicals, Inc. or HCV Core ELISA, XpressBio); b) sodium-taurocholate co-transporting polypeptide (NTCP)-positive Huh7 cells were infected with hepatitis B virus (HBV) AD38 (produced from HepAD38 cells) and viral replication was quantified by HBV HBeAg ELISA; and c) human (peripheral blood monocytic cells (PBMCs) were infected with HIV-1 (JR-CSF) and viral replication was quantified by HIV-1 capsid/p24 ELISA. PBMCs were isolated as described previously. The Scripps Research Institute Normal Blood Donor Service (TSRI NBDS) provides TSRI investigators who have Human Subjects Committee-approved protocols with a source of normal blood for their research. Donors are assured of a controlled clinical setting for their blood to be drawn by licensed phlebotomists, and investigators are assured that the donors whose specimens they obtain through the service have been screened upon entry into the program and annually thereafter for a CBC, Hepatitis B and C and HIV-1. Hemoglobin determinations at every donation protect the donor from phlebotomy-induced anemia. […]

With `CC=CCC(C)C(O)C1C(=O)NC(CC)C(=O)N(C)C(CSCCCCO)C(=O)N(C)C(CC(C)(C)O)C(=O)NC(C(C)C)C(=O)N(C)C(CC(C)C)C(=O)NC(C)C(=O)NC(C)C(=O)N(C)C(CC(C)C)C(=O)N(C)C(CC(C)C)C(=O)N(C)C(C(C)C)C(=O)N1C` (stereo not shown) [STG-175] the EC50 ([1]; Huh-7.5.1, 144 h, read-out: EC50, WT replicon) was 35.7 nM, the EC50 ([1]; Huh-7.5.1, 192 h, read-out: EC50, WT replicon) was 34.4 nM and the EC50 ([1]; Huh-7.5.1, 192 h, read-out: EC50 GT1b WT) was 10.6 nM. For the same compound, the EC50 ([2]; Huh-7.5.1, 144 h, read-out: EC50, D320E replicon) was 61.6 nM, the EC50 ([2]; Huh-7.5.1, 192 h, read-out: EC50, D320E replicon) was 83.2 nM and the EC50 ([2]; Huh-7.5.1, 192 h, read-out: EC50 D320E NS5A) was 62.8 nM. For the same compound, the “fold more resistant than wild-type replicon, D320E” value ([2]; day 6) was 1.7 fold, the “fold more resistant than wild-type replicon, D320E” value ([2]; day 8) was 2.4 fold and the EC50 ([3]; Huh-7.5.1, 144 h, read-out: EC50, D320E/Y321N replicon) was 75 nM. For the same compound, the EC50 ([3]; Huh-7.5.1, 192 h, read-out: EC50, D320E/Y321N replicon) was 102 nM, the EC50 ([3]; Huh-7.5.1, 192 h, read-out: EC50 D320E/Y321N NS5A) was 77.9 nM and the “fold more resistant than wild-type replicon, D320E/Y321N” value ([3]; day 6) was 2.1 fold. For the same compound, the “fold more resistant than wild-type replicon, D320E/Y321N” value ([3]; day 8) was 2.9 fold, the “fold resistance conferred by NS5A D320E and Y321N substitutions (summary)” value ([3]; variants emerged under STG-175 pressure) was ~ 2 fold and 2-3 fold and the “HIV-1 infection (HIV-1 capsid ELISA)” value ([4]; 0.5 μM) was “significantly decreased infection”. The “HIV-1 infection (HIV-1 capsid ELISA)” value ([4]; 5 μM) was “fully blocked”.
